The subject of the test is microorganisms. The settings on record: display water (vase water) of cut flowers; prior art antimicrobial.

From patent publication US20010042341A1, “Vase-added compositions for controlling plant and flower moisture transpiration rates” (priority 2000, published 2001) come the findings set out here.

As for `O=C(O)CC(O)(CC(=O)O)C(=O)O.Oc1cccc2cccnc12` [8-hydroxy quinoline citrate], the growth of microorganisms entry is “enhance the growth of microorganisms after an initial diminution of their level”.
